Calls of active or inactive are those of the source.
Experiments:
[1] = target: Phospholipase A2 (Homo sapiens, UniProt P04054); assay type: functional;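 also: confirmatory dose-response counterscreen on phospholipase A2, testing hits that came from an ultra-high-throughput screen for ATG4B inhibitors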
[2] = target: Cysteine protease ATG4B (Homo sapiens, UniProt Q9Y4P1); assay type: functional;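 also: Fluorescence-based dose-response confirmation assay measuring inhibition of ATG4B activity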
[3] = target: ATP-dependent molecular chaperone HSP82 (Candida albicans (strain WO-1) (Yeast), UniProt C4YTQ8); test: steroid-induced GRE reporter decrease in yeast – S. cerevisiae, luminescence, Hsp90 inhibitor project, dose response (AID 2400); assay type: functional, cell-based;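 also: beta-galactosidase luminescence from glucocorticoid response element reporter as proxy for Hsp90 function; inhibitor potency where signal loss means Hsp90 inhibition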
Sequence of ATP-dependent molecular chaperone HSP82 (C4YTQ8 whole entry): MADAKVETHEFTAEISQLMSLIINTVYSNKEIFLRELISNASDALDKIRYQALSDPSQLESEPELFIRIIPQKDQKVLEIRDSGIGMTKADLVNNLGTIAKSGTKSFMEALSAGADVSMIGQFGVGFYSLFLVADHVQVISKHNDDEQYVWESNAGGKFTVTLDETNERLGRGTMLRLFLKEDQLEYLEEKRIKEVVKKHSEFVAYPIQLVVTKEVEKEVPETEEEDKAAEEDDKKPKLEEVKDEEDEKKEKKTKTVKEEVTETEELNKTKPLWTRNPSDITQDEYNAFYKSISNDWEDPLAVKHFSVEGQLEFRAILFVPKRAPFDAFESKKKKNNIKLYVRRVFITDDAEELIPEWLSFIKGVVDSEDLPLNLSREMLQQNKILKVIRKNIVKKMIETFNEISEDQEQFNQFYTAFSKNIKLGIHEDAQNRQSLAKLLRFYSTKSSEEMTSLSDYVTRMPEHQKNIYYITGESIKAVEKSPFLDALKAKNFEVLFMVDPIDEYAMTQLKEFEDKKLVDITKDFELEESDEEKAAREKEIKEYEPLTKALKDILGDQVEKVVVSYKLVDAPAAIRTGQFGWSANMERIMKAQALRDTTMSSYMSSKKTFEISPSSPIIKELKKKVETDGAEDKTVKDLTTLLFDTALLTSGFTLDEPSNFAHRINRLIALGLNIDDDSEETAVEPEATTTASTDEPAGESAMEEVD

[4] = NIH-3T3 fibroblast cytotoxicity, dose response, cytotoxicity control, cell-based, fluorescence, Alamar Blue, secondary assay (AID 2327); assay type: functional;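 also: NIH-3T3 mouse fibroblasts cultured with fluconazole at 8 µg/mL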
[5] = target: Serine/threonine-protein phosphatase (Candida dubliniensis (strain CD36 / CBS 7987 / NCPF 3949 / NRRLY-17841) (Yeast), UniProt B9W6M3); test: blockers of CaCl2-induced CDRE-lacZ signaling – S. cerevisiae, luminescence, secondary, dose response (AID 2388); assay type: functional, cell-based;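 also: yeast reporter cells carrying a calcineurin-responsive lacZ construct stimulated with calcium chloride; luminescent beta-galactosidase reporter signal in whole cells rather than isolated phosphatase activity; potency for inhibition where a drop in reporter signal means calcineurin blockade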
Sequence of Serine/threonine-protein phosphatase (B9W6M3 whole entry): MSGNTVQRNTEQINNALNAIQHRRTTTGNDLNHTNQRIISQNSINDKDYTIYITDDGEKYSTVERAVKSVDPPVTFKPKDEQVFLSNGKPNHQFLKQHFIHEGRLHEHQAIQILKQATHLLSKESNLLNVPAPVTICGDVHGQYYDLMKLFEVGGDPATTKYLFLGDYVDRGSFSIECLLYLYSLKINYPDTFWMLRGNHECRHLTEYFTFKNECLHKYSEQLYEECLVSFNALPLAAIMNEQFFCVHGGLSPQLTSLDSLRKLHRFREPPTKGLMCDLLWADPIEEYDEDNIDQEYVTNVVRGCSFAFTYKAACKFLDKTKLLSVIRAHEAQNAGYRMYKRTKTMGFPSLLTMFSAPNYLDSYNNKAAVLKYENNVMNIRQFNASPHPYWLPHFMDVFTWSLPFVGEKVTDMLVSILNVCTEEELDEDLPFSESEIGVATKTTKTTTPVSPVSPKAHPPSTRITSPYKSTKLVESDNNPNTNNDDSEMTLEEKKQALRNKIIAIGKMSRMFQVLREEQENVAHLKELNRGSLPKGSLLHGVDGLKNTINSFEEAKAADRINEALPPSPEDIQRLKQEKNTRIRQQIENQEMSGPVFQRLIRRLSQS

[6] = target: T1, Rac GTPase-activating protein 1 (Homo sapiens, UniProt Q9H0H5); test: blockers of MgcRacGAP-driven Rac1 GTP hydrolysis – biochemical, ADP Hunter fluorescence, primary and confirmatory, confirmation (AID 624330); assay type: functional
T1 sequence (Q9H0H5 whole entry): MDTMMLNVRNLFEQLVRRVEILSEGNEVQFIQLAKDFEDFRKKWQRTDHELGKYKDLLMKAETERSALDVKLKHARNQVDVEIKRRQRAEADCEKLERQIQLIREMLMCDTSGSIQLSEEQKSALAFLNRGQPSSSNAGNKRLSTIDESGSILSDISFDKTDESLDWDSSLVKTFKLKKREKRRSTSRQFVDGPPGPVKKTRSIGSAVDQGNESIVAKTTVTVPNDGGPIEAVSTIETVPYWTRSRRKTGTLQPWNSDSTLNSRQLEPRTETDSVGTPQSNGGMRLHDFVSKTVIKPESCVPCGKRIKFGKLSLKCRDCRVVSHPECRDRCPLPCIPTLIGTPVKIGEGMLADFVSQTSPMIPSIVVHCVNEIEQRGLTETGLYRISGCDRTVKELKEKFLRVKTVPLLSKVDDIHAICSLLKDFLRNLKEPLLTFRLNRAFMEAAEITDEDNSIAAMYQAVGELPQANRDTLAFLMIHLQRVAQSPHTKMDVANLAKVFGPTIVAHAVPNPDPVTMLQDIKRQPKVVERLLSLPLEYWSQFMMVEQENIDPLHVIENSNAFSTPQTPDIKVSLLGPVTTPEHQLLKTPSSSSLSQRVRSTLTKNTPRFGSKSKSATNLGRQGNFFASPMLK

[7] = fluconazole-exposed Candida albicans growth modulators – fluorescence, retest, confirmation (AID 2467); assay type: functional, cell-based
[8] = target: Phospholipase D2 (Homo sapiens, UniProt O14939); test: cellular phospholipase D2 inhibition IC50 – cell-based, dose response (AID 602147); assay type: functional;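 also: cellular assay in HEK293 cells overexpressing GFP-tagged PLD2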
Sequence of Phospholipase D2 (O14939 whole entry): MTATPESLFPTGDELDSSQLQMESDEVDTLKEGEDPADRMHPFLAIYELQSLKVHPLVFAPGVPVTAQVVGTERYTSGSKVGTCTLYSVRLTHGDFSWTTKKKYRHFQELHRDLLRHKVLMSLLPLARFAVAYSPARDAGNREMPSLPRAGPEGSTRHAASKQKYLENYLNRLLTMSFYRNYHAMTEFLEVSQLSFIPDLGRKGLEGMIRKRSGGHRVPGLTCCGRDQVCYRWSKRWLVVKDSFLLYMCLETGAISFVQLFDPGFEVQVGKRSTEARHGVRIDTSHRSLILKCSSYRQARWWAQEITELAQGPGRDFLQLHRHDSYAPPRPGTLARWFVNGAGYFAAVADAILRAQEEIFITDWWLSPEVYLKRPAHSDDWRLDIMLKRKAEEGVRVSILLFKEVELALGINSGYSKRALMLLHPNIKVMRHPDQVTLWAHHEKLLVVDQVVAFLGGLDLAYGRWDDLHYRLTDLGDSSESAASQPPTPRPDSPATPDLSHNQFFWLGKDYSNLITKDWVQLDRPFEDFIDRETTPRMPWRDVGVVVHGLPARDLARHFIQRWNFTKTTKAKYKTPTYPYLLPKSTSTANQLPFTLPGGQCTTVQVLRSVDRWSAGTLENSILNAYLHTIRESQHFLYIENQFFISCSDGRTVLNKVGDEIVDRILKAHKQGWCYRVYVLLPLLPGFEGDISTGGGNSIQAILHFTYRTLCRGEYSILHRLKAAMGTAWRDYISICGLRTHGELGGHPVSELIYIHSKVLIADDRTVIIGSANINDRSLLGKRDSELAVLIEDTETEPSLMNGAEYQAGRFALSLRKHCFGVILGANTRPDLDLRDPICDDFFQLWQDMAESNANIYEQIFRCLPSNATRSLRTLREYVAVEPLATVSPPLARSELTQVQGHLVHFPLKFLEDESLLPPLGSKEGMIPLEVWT

[9] = target: Phospholipase D1 (Homo sapiens, UniProt Q13393); test: cellular phospholipase D1 inhibition IC50 – cell-based, dose response (AID 602151); assay type: functional;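 also: cellular PLD1 assay in Calu-1 cells stimulated with PMA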
Sequence of Phospholipase D1 (Q13393 whole entry): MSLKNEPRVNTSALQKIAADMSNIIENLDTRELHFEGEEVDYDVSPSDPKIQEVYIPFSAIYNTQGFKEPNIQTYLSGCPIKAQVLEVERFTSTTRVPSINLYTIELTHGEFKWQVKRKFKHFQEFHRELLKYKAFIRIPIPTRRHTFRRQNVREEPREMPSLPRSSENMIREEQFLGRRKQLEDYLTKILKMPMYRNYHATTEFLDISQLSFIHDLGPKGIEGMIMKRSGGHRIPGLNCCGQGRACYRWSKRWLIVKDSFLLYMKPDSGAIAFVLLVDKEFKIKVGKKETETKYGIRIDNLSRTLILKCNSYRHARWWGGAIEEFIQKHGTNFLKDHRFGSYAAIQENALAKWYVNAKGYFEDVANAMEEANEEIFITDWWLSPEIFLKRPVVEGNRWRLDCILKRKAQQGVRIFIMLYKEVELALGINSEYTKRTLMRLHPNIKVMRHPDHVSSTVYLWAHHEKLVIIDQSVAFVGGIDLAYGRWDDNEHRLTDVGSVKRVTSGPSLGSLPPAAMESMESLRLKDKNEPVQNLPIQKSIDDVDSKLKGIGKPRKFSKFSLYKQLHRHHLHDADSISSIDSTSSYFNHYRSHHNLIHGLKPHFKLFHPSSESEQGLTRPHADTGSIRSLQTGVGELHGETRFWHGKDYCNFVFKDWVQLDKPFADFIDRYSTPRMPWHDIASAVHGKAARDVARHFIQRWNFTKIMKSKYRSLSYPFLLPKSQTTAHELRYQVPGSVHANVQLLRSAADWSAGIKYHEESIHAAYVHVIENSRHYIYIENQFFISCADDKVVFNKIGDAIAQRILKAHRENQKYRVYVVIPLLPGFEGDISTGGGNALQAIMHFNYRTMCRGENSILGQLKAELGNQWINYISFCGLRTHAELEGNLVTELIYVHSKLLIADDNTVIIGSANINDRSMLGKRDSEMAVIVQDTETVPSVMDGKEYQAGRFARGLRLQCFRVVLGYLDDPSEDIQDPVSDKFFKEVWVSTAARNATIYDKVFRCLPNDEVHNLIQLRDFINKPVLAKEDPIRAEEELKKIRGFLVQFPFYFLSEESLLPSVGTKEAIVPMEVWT

[10] = cells; assay type: functional, cell-based
[11] = Luminescence Cell-Based Dose Confirmation HTS to Identify Inhibitors of Platelet Dense Granule Release. [Related pubchem assays: 1663 (Primary HTS), 1678 (Summary of Project)]; assay type: functional
[12] = target: T2, Nuclear receptor subfamily 0 group B member 1 (Homo sapiens, UniProt P51843); assay type: functional, cell-based
T2 sequence (P51843 whole entry): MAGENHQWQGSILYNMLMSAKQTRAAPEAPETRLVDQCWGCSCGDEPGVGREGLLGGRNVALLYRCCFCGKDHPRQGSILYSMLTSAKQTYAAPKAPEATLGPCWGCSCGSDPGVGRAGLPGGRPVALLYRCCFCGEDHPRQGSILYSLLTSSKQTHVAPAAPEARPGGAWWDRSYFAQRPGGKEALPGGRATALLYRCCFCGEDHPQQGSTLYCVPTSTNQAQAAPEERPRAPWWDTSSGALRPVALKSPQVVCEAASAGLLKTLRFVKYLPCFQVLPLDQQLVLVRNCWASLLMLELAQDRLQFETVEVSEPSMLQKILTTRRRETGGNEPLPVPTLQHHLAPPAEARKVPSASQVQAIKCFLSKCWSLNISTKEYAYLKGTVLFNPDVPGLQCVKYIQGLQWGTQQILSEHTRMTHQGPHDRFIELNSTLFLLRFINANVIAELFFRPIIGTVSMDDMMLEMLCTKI

[13] = viability loss in HepG2 hepatoma cells – cell-based, ATP luminescence, cherry-pick, activator set 2, cytotoxicity control, dose response (AID 1053143); assay type: functional
[14] = test system: HeLa; test: ATP-based viability loss in HeLa cells – cell-based, CellTiter-Glo luminescence, cherry-pick samples, cytotoxicity control for MITF activator project, dose response (AID 540259); assay type: functional; details: Homo sapiens
[15] = test system: Streptococcus; test: GAS UMAA2166 growth inhibition – luminescence, BacTiterGlo, counter-screen for streptokinase expression inhibitor project, dose response (AID 1915); assay type: functional, organism-based;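 also: potency for reduction of bacterial viability or growth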
[16] = target: Luciferin 4-monooxygenase (Photinus pyralis, UniProt P08659); test: inhibition of purified Photinus pyralis luciferase – biochemical, luminescence, dose response (AID 1891)
Sequence of Luciferin 4-monooxygenase (P08659 whole entry): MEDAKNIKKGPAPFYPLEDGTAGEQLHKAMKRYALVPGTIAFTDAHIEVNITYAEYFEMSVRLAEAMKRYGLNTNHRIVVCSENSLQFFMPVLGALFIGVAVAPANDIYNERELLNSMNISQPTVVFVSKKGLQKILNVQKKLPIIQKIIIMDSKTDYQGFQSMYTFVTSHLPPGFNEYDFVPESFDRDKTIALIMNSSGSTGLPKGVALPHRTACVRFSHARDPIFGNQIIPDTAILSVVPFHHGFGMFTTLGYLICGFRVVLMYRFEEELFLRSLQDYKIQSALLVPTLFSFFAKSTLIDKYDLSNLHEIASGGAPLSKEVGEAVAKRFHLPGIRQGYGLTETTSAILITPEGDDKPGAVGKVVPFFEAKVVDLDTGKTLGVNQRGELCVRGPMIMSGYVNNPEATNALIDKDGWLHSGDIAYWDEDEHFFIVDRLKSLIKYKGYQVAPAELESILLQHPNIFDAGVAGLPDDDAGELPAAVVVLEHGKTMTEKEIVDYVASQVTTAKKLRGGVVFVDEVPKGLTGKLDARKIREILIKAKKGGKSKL

[17] = target: T3, Streptokinase A (Streptococcus pyogenes serotype M1, UniProt P10520); test: viability-normalized secreted streptokinase activity reduction – plasminogen activation absorbance, OD405, dose response (AID 1914); assay type: functional, Streptococcus pyogenes M1 GAS;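 also: secreted streptokinase activity via plasminogen activation per viability signal from cell pellet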
T3 sequence (P10520 whole entry): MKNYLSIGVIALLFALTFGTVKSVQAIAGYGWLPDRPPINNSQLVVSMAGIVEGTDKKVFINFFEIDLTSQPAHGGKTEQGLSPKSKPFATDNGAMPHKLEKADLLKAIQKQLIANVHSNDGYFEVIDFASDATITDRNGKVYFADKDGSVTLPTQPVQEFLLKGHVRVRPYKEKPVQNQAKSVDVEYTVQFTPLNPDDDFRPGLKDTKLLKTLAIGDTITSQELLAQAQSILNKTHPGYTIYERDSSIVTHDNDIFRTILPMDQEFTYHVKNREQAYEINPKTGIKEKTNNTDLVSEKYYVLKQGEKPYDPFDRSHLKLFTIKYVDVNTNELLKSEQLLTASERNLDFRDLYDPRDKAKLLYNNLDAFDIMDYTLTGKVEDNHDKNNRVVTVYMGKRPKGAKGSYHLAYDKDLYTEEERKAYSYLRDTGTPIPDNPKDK

[18] = test system: HEK293; test: cells; assay type: functional, cell-based; details: Homo sapiens
[19] = target: T2, Nuclear receptor subfamily 0 group B member 1; test: Luminescence-based cell-based high throughput dose response assay for inhibitors of the orphan nuclear receptor subfamily 0, group B, member 1 (DAX1; NR0B1). [Related pubchem assays (depositor defined):AID504766, AID504790]; assay type: functional
[20] = target: T4, Endoribonuclease toxin MazF (Escherichia coli K-12, UniProt P0AE70); test: MazEF toxin-antitoxin RNase activation – biochemical, fluorescence, single-stranded RNA substrate, SAR follow-up (AID 588603); assay type: functional
T4 sequence (P0AE70 whole entry): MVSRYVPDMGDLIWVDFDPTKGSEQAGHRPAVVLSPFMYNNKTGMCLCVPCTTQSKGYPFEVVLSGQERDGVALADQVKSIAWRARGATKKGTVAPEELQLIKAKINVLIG

[21] = target: T4, Endoribonuclease toxin MazF; test: substrate-only fluorescence increase artefacts – biochemical, single-stranded RNase substrate, counter-screen for MazEF activator project, dose response (AID 588502); assay type: functional
[22] = target: T4, Endoribonuclease toxin MazF; test: activation of MazEF endoribonuclease cleavage – biochemical, fluorescence, single-stranded RNA substrate, uHTS hits, dose response (AID 588481); assay type: functional
[23] = test system: MEF; test: SAR analysis of small molecule cytotoxicity of MazEF TA System activators in embryonic fibroblast (MEF) cells. [Related pubchem assays (depositor defined):AID504720, AID504743]; assay type: functional; details: Mus musculus
[24] = target: T4, Endoribonuclease toxin MazF; test: SAR analysis of small molecule activators of the MazEF TA System via a fluorescence-based single-stranded RNase assay counterscreen. [Related pubchem assays (depositor defined):AID504720, AID504743]; assay type: functional

Sequence of Phospholipase A2 (P04054 whole entry): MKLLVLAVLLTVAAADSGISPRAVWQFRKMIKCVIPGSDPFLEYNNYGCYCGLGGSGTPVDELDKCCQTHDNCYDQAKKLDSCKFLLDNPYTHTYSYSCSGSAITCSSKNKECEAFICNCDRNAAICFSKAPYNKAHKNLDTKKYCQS
Sequence of Cysteine protease ATG4B (Q9Y4P1 whole entry): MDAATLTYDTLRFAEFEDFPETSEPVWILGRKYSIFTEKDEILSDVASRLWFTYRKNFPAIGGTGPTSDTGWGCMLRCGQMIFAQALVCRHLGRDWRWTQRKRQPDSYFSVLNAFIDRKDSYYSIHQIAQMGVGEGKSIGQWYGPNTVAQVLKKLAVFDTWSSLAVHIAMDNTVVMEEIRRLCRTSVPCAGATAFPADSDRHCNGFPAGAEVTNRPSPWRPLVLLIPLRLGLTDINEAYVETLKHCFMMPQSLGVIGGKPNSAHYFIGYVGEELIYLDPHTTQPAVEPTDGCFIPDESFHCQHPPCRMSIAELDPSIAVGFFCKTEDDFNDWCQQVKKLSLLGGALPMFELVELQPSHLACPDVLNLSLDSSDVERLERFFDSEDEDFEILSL

O=C(c1ccc(Cl)c(S(=O)(=O)Nc2ccccc2C(=O)N2CCc3ccccc3C2)c1)N1CCc2ccccc2C1
IC50 [1]: 10.7 µM (active) | IC50 [2]: 15.6 µM (active)

COc1ccc(-n2c(=O)c3c4c(sc3n3c(S)nnc23)CCCC4)cc1
EC50 [3]: 4.45 µM (active) | EC50 [4]: 34.1 µM (inconclusive) | EC50 [5]: > 180 µM (inactive) | IC50 [6]: 35.7 µM (active) | EC50 [7]: 1.17 µM (active)

C[C@@H](CN1CCC(n2c(=O)[nH]c3ccccc32)CC1)NC(=O)c1ccc(F)c(F)c1
IC50 [8]: 1.6 µM (active) | IC50 [9]: 0.02 µM (active)

O=C(Nc1ccccc1)C(=O)Nc1ccc2c(c1)N(C(=O)C1CC1)CCC2
IC50 [10]: > 67.5 µM (inactive) | EC50 [11]: 3.74 µM (active) | IC50 [12]: > 67.5 µM (inactive) | AC50 [13]: 26 µM (active) | AC50 [14]: 14.1 µM (active) | EC50 [15]: 25.4 µM (active) | EC50 [16]: 1.13 µM (active) | EC50 [17]: > 150 µM (not active)

Cc1nc(N)nc(COc2ccccc2)n1
IC50 [18]: > 67.4 µM (inactive) | IC50 [19]: > 67.4 µM (inactive)

O=C(NC(=O)c1ccc(F)cc1)Nc1nc(-c2cccs2)cc(C(F)(F)F)n1
EC50 [20]: > 99 µM (inactive) | EC50 [21]: > 99 µM (inactive) | EC50 [22]: 20.3 µM (inactive) | CC50 [23]: > 99 µM (inactive) | EC50 [24]: > 99 µM (inactive)

Source: ChEMBL document CHEMBL1201862, “PubChem BioAssay data set” (2004)
